The values that follow come from article PMC3448856 (Biochemistry, 2012).

The pKi is the negative decadic logarithm of the Ki, by convention in mol/L. Low values mean a high Ki, high ones a low Ki. A word on the pIC50: it is the IC50 on a negative log10 scale, so that one unit is a factor of ten. By pKd is commonly meant −log10 of the Kd, conventionally taken in molar units.

Assay [1] concerns the target T1, APE-1 (Homo sapiens, UniProt P27695). Description: Molecular beacon assay for APE-1 endonuclease inhibition. The assay is classed as biochemical. The conditions noted are these: endonuclease activity; cells printed ND.
The subject of assay [2] is hairpin with the THF abasic site. Description: UV melting, hairpin with THF abasic site. In kind it is binding.
Assay [3] relates to self-complementary sequence 5′-GAGAGCGCTCTC
Description: UV melting, self-complementary DNA. The assay is classed as binding. The conditions noted are these: TM without compound 36.4 °C.

For assay [4], the system named is T98G cells. Description: Quantification of abasic sites. The conditions noted are these: for level of ARS in combination with MeLex: 80 μM MeLex + 0.25 μM compound, through at least 12 h; for level of aldehyde reactive sites (ARS): 0.25 μM compound alone, up to 18 h, background 1/10^5 nucleotides.
Assay [5] concerns the target APE-1 activity in T98G cell nuclear lysates (Homo sapiens, UniProt P27695). Description: Molecular beacon assay with T98G cell nuclear lysates. In kind it is biochemical. To be noted: EC2nM APE-1 activity.
Assay [6] deals with T98G cells. Description: Potentiation of MeLex cytotoxicity, short-term. The assay is classed as cell-based, human. To be noted: for LD50 of MeLex in the presence of LD10 concentration of inhibitor: 72 h MTS assay, MeLex by itself 267 μM. On the technique in general: Formazan colour is commonly taken as a measure of viable cells.
In assay [7] the target is T1, APE-1. Description: Gel-based assay for APE-1 inhibitors. In kind it is biochemical. The conditions noted are these: in gel excision assay; 20 nM APE-1, 100 nM duplex DNA with THF abasic site.
The test system of assay [8] is T98G cells. Description: Short term. In kind it is cell-based, human. To be noted: for LD10 concentration: 72 h MTS assay.
Assay [9] deals with T98G cells. Description: Long term. The assay is classed as cell-based, human.
Assay [10] relates to T98G cells. Description: Potentiation of MeLex cytotoxicity, long term. The assay is classed as cell-based, human. To be noted: long term assay; for LD50 of MeLex in the presence of LD10 concentration of inhibitor: MeLex alone 9.9 μM.
The subject of assay [11] is SKOV-3X ovarian tumor cells. To be noted: read-out: IC50 for cell growth; cited from earlier work.
Assay [12] deals with HEYC-2 ovarian tumor cells. The conditions noted are these: read-out: IC50 for cell growth; cited from earlier work.
Assay [13] has as its system APE-1 redox. The conditions noted are these: read-out: IC50 for redox inhibition; cited from earlier work.
Assay [14] deals with T1, APE-1. Description: Fluorescence binding of 4 to APE-1 and displacement by E3330. To be noted: displacement of 6 μM 4 from 1 μM APE-1.
Assay [15] has as its system APE-1 endonuclease activity. To be noted: at 100 μM concentration; cited from earlier work.
Assay [16] concerns the target unmodified hairpin DNA. Description: EtBr fluorescence titration with unmodified hairpin DNA. The conditions noted are these: unmodified hairpin DNA (data not shown). The assay is classed as binding.
For assay [17], the target named is THF modified hairpin DNA. Description: EtBr fluorescence titration with THF modified hairpin DNA. In kind it is binding. To be noted: THF modified hairpin DNA (data not shown).
The target of assay [18] is double-stranded DNA. The conditions noted are these: cited from earlier work.
Assay [19] relates to DNA with a bulge. The conditions noted are these: cited from earlier work.
In assay [20] the test system is VERA kidney cell line. The conditions noted are these: read-out: IC50 for the toxicity; cited from earlier work.

pIC50, pKd, pKi: −log10 of the molar value. Where “and” joins values, the source holds several entries; their conditions need not be identical. Equal entries are not always repeated. Peptide text beside a SMILES is read from it. * marks the point of attachment. Tos = Cc1ccc(S(=O)(=O)*)cc1; Bn = c1ccc(C*)cc1

T1 sequence (P27695 whole entry): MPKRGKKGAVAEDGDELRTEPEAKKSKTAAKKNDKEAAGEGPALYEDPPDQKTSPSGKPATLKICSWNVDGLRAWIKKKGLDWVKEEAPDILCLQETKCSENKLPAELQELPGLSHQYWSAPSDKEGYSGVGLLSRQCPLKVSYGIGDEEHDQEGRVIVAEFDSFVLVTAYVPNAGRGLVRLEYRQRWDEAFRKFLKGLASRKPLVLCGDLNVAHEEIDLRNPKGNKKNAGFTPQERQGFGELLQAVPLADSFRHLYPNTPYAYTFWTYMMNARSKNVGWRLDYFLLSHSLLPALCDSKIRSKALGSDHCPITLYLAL
APE-1 activity in T98G cell nuclear lysates, sequence (P27695 whole entry, stated change not applied): as the sequence (P27695 whole entry) above

In assay [1], `CC(NC(=O)/C(=C\c1ccccc1)NC(=O)c1ccccc1)c1ccccc1` (stereo not drawn) [Compound 22] showed a pKi of less than 4.00.

Take `C/C(=N\Nc1cc(C)nc2cc3c(cc12)OCO3)c1cn(C)n(-c2ccccc2)c1=O` [Compound 1]: in assay [2], the “increase in stability (TM) of hairpin” value was greater than 9 °C. Further, in assay [3], the “TM of DNA in presence of compound” value was found to be 40.8 °C. The “level of ARS in combination with MeLex” value in [4] is reported as 50 sites/10^5 nucleotides. Also, in assay [5], the pKi is 6.35. Moreover, the entries for the “LD50 of MeLex in the presence of LD10 concentration of inhibitor” value (“LD50 of MeLex in the presence … of inhibitor” for short) in assay [6] and in assay [10] were 54 µM and 2.0 µM, respectively. Further, the pIC50 in [7] was 5.36. Also, the LD10 concentration in assay [8] was found to be 2.20 µM; in assay [9] (long term assay), 0.17 µM.

Take `CC(N)C(=O)NC1C(CO)OC(n2cnc3c(N)ncnc32)C1O` (stereo not drawn) [Compound 17]: the pKi in [1] is less than 4.00.

`CCCCCCCCC/C(=C\C1=C(C)C(=O)C(OC)=C(OC)C1=O)C(=O)O` [Compound E3330, (2E)-2-[(4,5-dimethoxy-2-methyl-3,6-dioxo-1,4-cyclohexadien-1-yl)methylene]undecanoic acid]: the results for the pIC50 in [11], in [12] and in [13] were roughly 4.46, roughly 4.46 and 5.00, respectively. The “E3330 concentration for approximately 50% decrease in the fluorescence of 4” value in assay [14] is “approximately 12 μM”. In addition, the “level of aldehyde reactive sites (ARS)” value in [4] is reported as “returned to control levels by 18 h”. Also, in assay [4], the “level of ARS in combination with MeLex” value is on record as “dropped off”. In addition, the “LD50 of MeLex in the presence … of inhibitor” value was 128 µM in assay [6] and “little or no contribution” in assay [10]. In addition, the “inhibition of APE-1 endonuclease activity” value in [15] was 3 fold.

Turning to “methyl 3-(1-methyl-5-(1-methyl-5-(propylcarbamoyl)-1H-pyrrol-3-ylcarbamoyl)-1H-pyrrol-3-ylamino)-3-oxopropane-1-sulfonate [MeLex, reference compound]”, in [4] (80 μM MeLex, through the first 4 h), the “induction of ARS” value is 36 /10^5 nucleotides. The LD50 was 250 µM and 267 µM in assay [8] (short term (72 h) MTS assay, compound alone); 12 µM and 9.9 µM in assay [9] (long term assay, compound alone).

In assay [1], `Nc1ncnc2c1ncn2C1OC(C(=O)NCC(=O)O)C(O)C1O` (stereo not drawn) [Compound 16] had a negative-log Ki (pKi) of less than 4.00.

On to `Cc1cc(N/N=C/c2c(C)n(C)n(-c3ccccc3)c2=O)c2cc3c(cc2n1)OCO3` [Compound 5], for which, in assay [4] (0.25 μM compound), the “increase in ARS above background” value is “approximately 4 fold”. Besides, in assay [5], the pKi was 5.85. The “LD50 of MeLex in the presence … of inhibitor” value in assay [6] was 80 µM; in assay [10], 3.6 µM. In [7], the negative-log IC50 (pIC50) was 4.46. Also, the LD10 concentration came to 6.50 µM in [8] and 0.90 µM in [9] (long term assay). For the same compound, the “fold less toxic than 4” value in assay [8] (assay (short or long term) not stated) is given as roughly 20 fold.

`COc1ccc2c(C)cc(N/N=C(\C)c3cn(C)n(-c4ccccc4)c3=O)nc2c1` [Compound 8]: the “level of aldehyde reactive sites (ARS)” value in [4] was “same as background”. The compound further had a negative-log Ki (pKi) in [1] of less than 4.00. Further, in assay [7], the pIC50 was less than 4.00.

Take `O=C(NNc1ccnc2cc(Cl)ccc12)/C(=C/c1ccccc1Cl)NC(=O)c1ccccc1` [Compound 15]: the pKi in [1] is less than 4.00.

The compound `CCOC(=O)CC/C(=C\NC(=O)c1ccccc1)NC(=O)c1ccccc1` [Compound 26] gave a pKi in assay [1] of less than 4.00.

`Cc1ccc(S(=O)(=O)NC(CSCc2ccccc2)C(=O)NC(Cc2ccc(O)cc2)C(=O)O)cc1` (stereo not drawn) [Compound 25] (Tos-Cys(Bn)-Tyr-OH; configuration not given here): the pKi in assay [1] was less than 4.00.

Take `CCn1c2ccccc2c2cc(/C=N/Nc3cc(C)nc4cc5c(cc34)OCO5)ccc21` [Compound 4]: the “increase in stability (TM) of hairpin” value in [2] was “not appreciably”. In assay [3], the “TM of DNA in presence of compound” value is 37.3 °C. Besides, the “level of aldehyde reactive sites (ARS)” value in [4] was “approximately 17 ARS/10^5 nucleotides”. Moreover, in assay [4], the “level of ARS in combination with MeLex” value stood at 63 sites/10^5 nucleotides. In assay [5], this compound gave a pKi of 6.68. Moreover, the “LD50 of MeLex in the presence … of inhibitor” value in assay [6] came out at 49 µM; in assay [10], 1.6 µM. Moreover, the “potentiation of MeLex toxicity (fold more sensitive)” value in [6] (short term assay, LD10 concentration of inhibitor) is “approximately 5 fold”. The compound also gave a negative-log IC50 (pIC50) in assay [7] of 5.39. The LD50 was determined as 0.96 µM in [8] (3-day MTS assay) and 0.19 µM in assay [9] (long term (10-day) assay, called clonogenic). In addition, the LD10 concentration stood at 0.25 µM in assay [8] and 0.08 µM in [9] (long term assay). In [10] (LD10 concentration of inhibitor), the “potentiation of MeLex toxicity” value is listed as “approximately 5 fold”.

With `CC[n+]1c(-c2ccccc2)c2cc(N)ccc2c2ccc(N)cc21` [EtBr, ethidium bromide], the pKd in assay [16] is 5.80; in assay [17] it was 5.74; in assay [18], roughly 6.00. Moreover, the “level of aldehyde reactive sites (ARS)” value in assay [4] is “no affect”. For the same compound, in assay [4], the “level of ARS in combination with MeLex” value is reported as “dropped off”. Besides, the “stronger binding to DNA with a bulge than to double-stranded DNA” value in [19] is on record as roughly 10 fold.

For the compound `Cc1cc(N/N=C/c2ccc3c(c2)OCO3)c2cc3c(cc2n1)OCO3` [Compound 3], the negative-log IC50 (pIC50) in assay [7] is 5.54; in assay [20] it was 6.20.

Consider `COc1cccc(/C=N/Nc2cc(C)nc3cc4c(cc23)OCO4)c1` [Compound 2], for which, in assay [5], the negative logarithm of the Ki (pKi) was 6.62. The compound further gave a negative logarithm of the IC50 (pIC50) in assay [7] of 5.00.

In the case of `CNC(=O)Oc1cc([N+](C)(C)C)ccc1C` [Compound 21], in assay [1], the pKi is less than 4.00.
